Test results published in PMC11180795 (Frontiers in Pharmacology, 2024).

Tests used:
Assay type in all cases: cell-based, Murine
[1] = test system: NO production in LPS-activated RAW 264.7 macrophages; experiment: Inhibition of nitric oxide (NO) production in LPS-activated RAW 264.7 macrophages (Griess reagent); conditions: for amount of NO produced: compound at 25 µM, LPS 1 μg/mL, 24 h, untreated and stimulated control 6.08 µM
Experimental: Murine macrophage RAW 264.7 cell line obtained from the American Type Culture Collection (Rockville, MD, United States) was maintained in DMEM supplemented with 10% fetal calf serum (FCS) and 1% penicillin/streptomycin/fungizone (PSF) under standard cell culture conditions at 37°C and 5% CO2 in a humidified environment. The RAW 264.7 macrophage cells were seeded in 96 well-microtitre plates (2 × 10^5 cells/mL). They were activated by incubation in a medium containing 1 μg/mL LPS alone (control) or lipopolysaccharide, and compounds at concentration of 3.12 µM, 6.25 µM, 12.5 µM and 25 µM dissolved in DMSO. […] After 24h, the amount of nitric oxide released from macrophages was determined using the Griess reagent as previously described ([Dzoyem and Eloff, 2015]).

IL-10 = experiment: Th1/Th2 cytokine measurement (Cytometric Bead Array) in LPS-stimulated Raw 264.7 cells, IL-10; conditions: compound at 20 µM, LPS 0.1 μg/mL, 24 h; stimulated untreated control 0.88 pg/mL
Experimental: (§1) Raw 264.7 cells were seeded at 2 × 10^5 cells/mL in a 48-well microplate and allowed to adhere for 24 h, then treated with LPS 0.1 μg/mL and with compounds (1), (5) and (6) at 20 µM. Untreated cells and indomethacin (10 µM) were used as controls. After 24 h of incubation, the supernatant was collected and the amount of pro-inflammatory Th1 cytokines (IFN-γ, TNF-α, and IL-2) and anti-inflammatory Th2 cytokines (IL-4, IL-6, and IL-10) released measured. The experiment was performed according to the manufacturer’s instructions using BD™ Cytometric Bead Array (CBA) […] Th1/Th2 Cytokine Kit (BD-Biosciences), and data were acquired on a BD LSR Fortessa™ cell analyzer flow cytometer.

IL-4 = experiment: Th1/Th2 cytokine measurement (Cytometric Bead Array) in LPS-stimulated Raw 264.7 cells, IL-4; conditions: compound at 20 µM, LPS 0.1 μg/mL, 24 h; stimulated untreated control 1.01 pg/mL
Experimental: as §1

[2] = Cytotoxicity MTT assay on RAW 264.7 cells; conditions: mouse, RAW 264.7 macrophage cells, 48 h incubation, read-out: IC50, cytotoxic effect on RAW264.7 cells
Experimental: Murine macrophage RAW 264.7 cell line obtained from the American Type Culture Collection (Rockville, MD, United States) was maintained in DMEM supplemented with 10% fetal calf serum (FCS) and 1% penicillin/streptomycin/fungizone (PSF) under standard cell culture conditions at 37°C and 5% CO2 in a humidified environment.
The cytotoxic effect of compounds on RAW 264.7 cells was assessed using the 3-(4, 5-dimethylthiazol-2-yl)-2, 5-diphenyl tetrazolium bromide (MTT) assay as established by Mosmann ([Mosmann, 1983]) with slight modifications. Briefly, cells were seeded at a density of 1 × 10^5 cells/mL (100 µL) in 96-well microtitre plates and incubated at 37°C and 5% CO2 in a humidified environment. After 24 h incubation, 100 µL of compounds (at concentration ranged from to 250 μM–1.95 µM) were added to the wells containing cells and further incubated for 48 h in a CO2 incubator. A suitable control (untreated cells) was included and doxorubicin was used as a positive reference. Thereafter, the medium in each well was aspirated from the cells, which were then washed with PBS, and finally fresh medium (200 µL) was added to each well. Then, 30 µL of MTT (5 mg/mL in PBS) was added to each well and the plates were incubated at 37°C for 4 h. The medium was aspirated from the wells and DMSO was added to solubilize the formed formazan crystals. The absorbance was read at 570 nm (SpectraMax 190, Molecular devices). The percentage of cell inhibition was calculated with reference to the control (untreated cells taken as 100% viability). Then, the IC50 values of plant compounds showing more than 50% cell growth inhibition were calculated by plotting the percentage inhibition against the concentration.

TNF-α = experiment: Th1/Th2 cytokine measurement (Cytometric Bead Array) in LPS-stimulated Raw 264.7 cells, TNF-α; conditions: compound at 20 µM; for effect on TNF-α production (in words): vs stimulated and untreated control
Experimental: as §1

SMILES | amount of NO produced [1] [µM] | IL-10 level (IL-10) [pg/mL] | IL-4 level (IL-4) [pg/mL] | IC50 at 48 h [2] [µM] | effect on TNF-α production (in words) (TNF-α) | inhibitory effect on NO production at the highest concentration (in words) ([1]; 25 µM, LPS-stimulated RAW 264.7) | TNF-α level (TNF-α; LPS 0.1 μg/mL, 24 h, stimulated untreated control 4356.86 pg/mL) [pg/mL]
CC(C)=CCC/C(C)=C/C[C@]12C[C@@H](CC=C(C)C)C(C)(C)[C@](CC=C(C)C)(C(=O)C(C(=O)c3ccc(O)c(O)c3)=C1O)C2=O [Compound 6, Guttiferone M] | 0.54 | 1.77 | 0.94 | 61.2 | moderate decrease |  | 
CC(C)=CCC/C(C)=C/C[C@]12C[C@@H](CC=C(C)C)C(C)(C)[C@](C/C=C(\C)CCC=C(C)C)(C(=O)C(C(=O)c3ccc(O)c(O)c3)=C1O)C2=O [Compound 5, Guttiferone O] | 0.3 | 2.05 | 2.25 | 64.5 | significantly reduces |  | 
CC(C)=CCc1c2c(c3oc4c(O)cccc4c(=O)c3c1O)C=CC(C)(C)O2 [Compound 1, Ananixanthone] |  | 0.971 | 1.23 | > 100 |  | remarkable inhibitory effect | 3854.61
